Measured values from article PMC12140300, “Development of Carbon‐11 Labeled Pyrimidine Derivatives as Novel Positron Emission Tomography (PET) Agents Enabling Brain Sigma‐1 Receptor Imaging” (Advanced Science, 2025).

Assay: NHP plasma and metabolite analysis
Type: in vivo, rhesus macaque
Conditions: 30-minute mark
Text: Understanding the metabolism of [^11C]CNY‐01 is crucial for modeling its distribution kinetics and evaluating safety profiles. Figure 4B illustrates the presence of radiometabolites in arterial plasma following a bolus injection of [^11C]CNY‐01. […] This characteristic makes it well‐suited for kinetic modeling and reducing background signal interference.
During the PET/MR scanning, macaque arterial blood samples were collected synchronously. Metabolite extraction and analysis were based on published methods.^[ [54], [60] ^] Briefly, the blood samples were centrifuged to isolate plasma. Next, protein precipitation was achieved by mixing the plasma with acetonitrile (v/v = 1). The mixture was then centrifuged again to obtain protein‐free plasma. A 1 mL aliquot of the protein‐free supernatant was diluted in 4 mL of deionized water, and the radiometabolites were analyzed by HPLC. HPLC condition: Mobile Phase A: water + 0.1% formic acid; Mobile Phase B: acetonitrile + 0.1% formic acid; separation method = 95/5 – 50/50 A/B from 3–8 min linear gradient; 50/50–5/95 A/B from 8–10 min linear gradient; 5/95 A/B from 10–11 min isocratic; flow rate 2 mL min^−1.

Q: With Cc1nc(-c2ccc(O[11CH3])cc2)nc(OCCCN2CCCCC2)c1Cl [[^11C]CNY-01] as the molecule, how does the “parent compound present in plasma” value read?
A: over 30%
